Data: patent US8084610B2, “Compositions and methods for detecting and treating tumors containing acidic areas” (priority 2006, dated 2011)

Assays:
[1] = tested on: tumors; conditions: tumor-bearing mice; reduction of about 0.3 pH units in the tumors; cited from earlier work
[2] = Titration assay of sodium salts with 5 M HCl (pKa / effective pKa)
Experimental: Typically new structures that may be suitable as advanced pH-switch components are first assessed for their pKa value in normal saline. This entails preparing the sodium salt form of the structure and dissolving it at a concentration of 20 milliMolar in 15 ml of 0.15 Molar NaCl (deareated to remove CO2). […] A plot of pH versus volume of added HCl affords the effective pKa value. It is also desirable to carry out this same titration in methanol/water (1:1 by vol) in order to get an estimate of the pKa value independent of insolubility effects.
The compound in FIG. 12a was prepared by reacting camphoric anhydride with dimethylamine. The compound in FIG. 12b was prepared by reacting camphoric anhydride with ethylamine. The sodium salts of compounds shown in FIG. 12a (designed to form an internal acid-specific H-bond) and 12b (designed to form non-acid-specific H-bonds) were titrated in aqueous solution.
The two compounds in FIG. 15 were prepared by reacting the respective anhydrides with dimethylamine, and then the sodium salts titrated in methanol/water, 1:1 by volume—in order to preclude insolubility effects impacting the titration curve.
The methyl ester of isonipocotic acid was alkylated with bromopropane and then the resultant tertiary amine oxidized to the N-oxide with meta-Chlorobenzoylperoxide. Finally, the ester was cleaved with aqueous sodium hydroxide to give structure iii in FIG. 16b. This product in its sodium salt form was titrated in water.

Structure (SMILES): O=C(O)CCCc1ccc(N(CCCl)CCCl)cc1 [Chlorambucil]
- improvement in tumor growth delay [1]: 1.7 fold

Structure (SMILES): CN(C)C(=O)C=CC(=O)O [FIG. 14b]
- pKa value (mid-point of the transition between salt and acid) ([2]; sodium salt titrated with HCl in water / aqueous solution): below 3.0

Structure (SMILES): CCC[N+]1([O-])CCC(C(=O)O)CC1 (stereo not shown) [structure iii in FIG. 16b, N-oxide of N-propylisonipocotic acid]
- first derivative of titration plot, minimum attributed to N-oxide moiety (pH) ([2]; sodium salt titrated in water): ~4.0
- first derivative of titration plot, other minimum (pH), attributed to internal low-barrier H-bond ([2]; sodium salt titrated in water): ~5.6
